Test results as given in US10344024B2, “Compounds as ROR gamma modulators” (Glenmark Pharmaceuticals S.A., priority 2015, dated 2019).

Target: T1, GST-tagged ROR gamma ligand binding domain (LBD) (Homo sapiens, UniProt P51449)
T1 construct: purchased Invitrogen
T1 sequence (P51449 269-508 limits assumed): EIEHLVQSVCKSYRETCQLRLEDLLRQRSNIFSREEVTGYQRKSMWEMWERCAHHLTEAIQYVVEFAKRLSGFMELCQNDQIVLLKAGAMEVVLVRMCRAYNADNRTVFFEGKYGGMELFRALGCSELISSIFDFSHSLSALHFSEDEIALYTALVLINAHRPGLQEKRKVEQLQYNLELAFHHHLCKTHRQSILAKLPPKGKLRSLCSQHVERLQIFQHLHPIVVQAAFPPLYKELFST
Test: TR-FRET assay for ROR gamma (LanthaScreen co-activator peptide recruitment)
Format: biochemical
Details: for inhibition at 1 µM: compound concentration 1 μM; for inhibition at 1 µM / inhibition at 10 µM: TR-FRET ratio 520/495, percent of control; for inhibition at 10 µM: compound concentration 10 μM; for IC50: from dose response curve, nonlinear regression, read-out: IC50 range
Summary of the method: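 Antagonist-mode co-activator recruitment: 10 nM GST-RORγ LBD with compound (4% DMSO final) in 25 mM HEPES pH 7.4, 100 mM NaCl, 5 mM DTT, 0.01% BSA, 1 h at 22° C.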

SMILES	inhibition at 1 µM	inhibition at 10 µM	IC50
CCC(F)(F)c1ccc(CC(=O)Nc2ccc(-c3nccnc3-c3ccc(Cl)cc3)cc2F)cc1 [Example 26, N-(4-(3-(4-Chlorophenyl)pyrazin-2-yl)-2-fluorophenyl)-2-(4-(1,1-difluoropropyl)phenyl)acetamide]	71.9%	79.6%	100 to 500 nM
CCC(F)(F)c1ccc(CC(=O)Nc2ccc(-n3nc(C(F)(F)F)cc3-c3ccccc3Cl)cc2)cc1 [Example 29, N-(4-(5-(2-Chlorophenyl)-3-(trifluoromethyl)-1H-pyrazol-1-yl)phenyl)-2-(4-(1,1-difluoropropyl)phenyl)acetamide]	77.1%	79.8%	< 50 nM
CCC(F)(F)c1ccc(CC(=O)Nc2ccc(-c3nccnc3-c3ccc(Cl)cc3F)cc2)cc1 [Example 6, N-(4-(3-(4-Chloro-2-fluorophenyl)pyrazin-2-yl)phenyl)-2-(4-(1,1-difluoropropyl)phenyl)acetamide]	87.4%	86.4%	< 50 nM
CCC(F)(F)c1ccc(CC(=O)Nc2ccc(-c3nccnc3N(C)[C@@H](C)c3ccccc3)cc2)cc1 [Example 62, (S)-2-(4-(1,1-Difluoropropyl)phenyl)-N-(4-(3-(methyl(1-phenylethyl)amino)pyrazin-2-yl)phenyl)acetamide]	65.6%	84.8%	
CCC(F)(F)c1ccc(CC(=O)Nc2ccc(-c3nccnc3N(C)[C@H](C)c3ccccc3)cc2)cc1 [Example 60, (R)-2-(4-(1,1-Difluoropropyl)phenyl)-N-(4-(3-(methyl(1-phenylethyl)amino)pyrazin-2-yl)phenyl)acetamide]	69.6%	83%	100 to 500 nM
CCC(F)(F)c1ccc(CC(=O)Nc2ccc(-c3nccnc3-c3ccc(Cl)cc3Cl)cc2)cc1 [Example 50, N-(4-(3-(2,4-Dichlorophenyl)pyrazin-2-yl)phenyl)-2-(4-(1,1-difluoropropyl)phenyl)acetamide]	83.2%	83%	< 50 nM
CCC(F)(F)c1ccc(CC(=O)Nc2ccc(-c3nccnc3-c3ccc(C)cc3)cc2)cc1 [Example 13, 2-(4-(1,1-Difluoropropyl)phenyl)-N-(4-(3-(p-tolyl)pyrazin-2-yl)phenyl)acetamide]	82.7%	84.4%	< 50 nM
CCC(F)(F)c1ccc(CC(=O)Nc2ccc(-c3nccnc3-c3cnn(C)c3)cc2)cc1 [Example 23, 2-(4-(1,1-Difluoropropyl)phenyl)-N-(4-(3-(1-methyl-1H-pyrazol-4-yl)pyrazin-2-y1)phenyl)acetamide]	36.6%	68.6%	
CCC(F)(F)c1ccc(CC(=O)Nc2ccc(-c3nccnc3N[C@@H](C)c3ccccc3)cc2)cc1 [Example 61, (S)-2-(4-(1,1-Difluoropropyl)phenyl)-N-(4-(3-((1-phenylethyl)amino)pyrazin-2-yl)phenyl)acetamide]	84.2%	91.4%	50 to 100 nM
CC(O)C(F)(F)c1ccc(CC(=O)Nc2ccc(-c3nccnc3-c3ccc(F)cc3Cl)cc2)cc1 (stereo not shown) [Example 39, N-(4-(3-(2-Chloro-4-fluorophenyl)pyrazin-2-yl)phenyl)-2-(4-(1,1-difluoro-2-hydroxypropyl)phenyl)acetamide]	65.5%	72.8%	
CCC(F)(F)c1ccc(CC(=O)Nc2ccc(-c3nccnc3N[C@@H](C)c3ccc(C)cc3C)cc2)cc1 [Example 69, (S)-2-(4-(1,1-Difluoropropyl)phenyl)-N-(4-(3-((1-(2,4-dimethylphenyl)ethyl)amino)pyrazin-2-yl)phenyl)acetamide]	97%	97.1%	< 50 nM
CCC(F)(F)c1ccc(CC(=O)Nc2ccc(-c3nccnc3OCc3ccccc3)cc2)cc1 [Example 75, N-(4-(3-(Benzyloxy)pyrazin-2-yl)phenyl)-2-(4-(1,1-difluoropropyl)phenyl)acetamide]	75.7%	84.2%	50 to 100 nM
CCC(F)(F)c1ccc(CC(=O)Nc2ccc(-n3nc(C)cc3-c3ccc(Cl)cc3Cl)cc2)cc1 [Example 38, N-(4-(5-(2,4-Dichlorophenyl)-3-methyl-1H-pyrazol-1-yl)phenyl)-2-(4-(1,1-difluoropropyl)phenyl)acetamide]	70.7%	74.9%	100 to 500 nM
COCC(F)(F)c1ccc(CC(=O)Nc2ccc(-c3nccnc3-c3ccc(Cl)cc3)cc2)cc1 [Example 3, N-(4-(3-(4-Chlorophenyl)pyrazin-2-yl)phenyl)-2-(4-(1,1-difluoro-2-methoxyethyl)phenyl)acetamide]	74%	84.8%	50 to 100 nM
CCC(F)(F)c1ccc(CC(=O)Nc2ccc(-c3nccnc3N3CCN(CCOC)CC3)cc2)cc1 [Example 41, 2-(4-(1,1-Difluoropropyl)phenyl)-N-(4-(3(4-(2-methoxyethyl)piperazin-1-yl)pyrazin-2-yl)phenyl)acetamide]	4.2%	48.7%	
Cc1ccc([C@@H](C)Oc2nccnc2-c2ccc(NC(=O)Cc3ccc(C(F)(F)C(C)O)cc3)cc2)c(Cl)c1 (stereo partly drawn) [Example 88, N-(4-(3-((R)-1-(2-Chloro-4-methylphenyl)ethoxy)pyrazin-2-yl)phenyl)-2-(4-(1,1-difluoro-2-hydroxypropyl)phenyl)acetamide]	87.4%	85.5%	< 50 nM
CC(O)C(F)(F)c1ccc(CC(=O)Nc2ccc(-c3nccnc3-c3ccc(F)c(F)c3)cc2)cc1 (stereo not shown) [Example 9, 2-(4-(1,1-Difluoro-2-hydroxypropyl)phenyl)-N-(4-(3-(3,4-difluorophenyl)pyrazin-2-yl)phenyl)acetamide]	55.2%	72.1%	> 500 nM
CC(O)C(F)(F)c1ccc(CC(=O)Nc2ccc(-c3nccnc3N3CCOCC3)cc2)cc1 (stereo not shown) [Example 19, 2-(4-(1,1-Difluoro-2-hydroxypropyl)phenyl)-N-(4-(3-morpholinopyrazin-2-yl)phenyl)acetamide]	42.2%	48.8%	
CCC(F)(F)c1ccc(CC(=O)Nc2ccc(-c3ncccc3-c3ccc(Cl)cc3)cc2)cc1 [Example 7, N-(4-(3-(4-Chlorophenyl)pyridin-2-yl)phenyl)-2-(4-(1,1-difluoropropyl)phenyl)acetamide]	83%	86.2%	< 50 nM
CCC(F)(F)c1ccc(CC(=O)Nc2ccc(-c3nccnc3Oc3ccccc3Cl)cc2)cc1 [Example 87, N-(4-(3-(2-Chlorophenoxy)pyrazin-yl)phenyl)-2-(4-(1,1-difluoropropyl)phenyl)acetamide]	16.3%	32.4%	
CCC(F)(F)c1ccc(CC(=O)Nc2ccc(-c3cnn(C(C)(C)C)c3-c3ccc(F)cc3)cc2)cc1 [Example 21, N-(4-(1-(tert-Butyl)-5-(4-fluorophenyl)-1H-pyrazol-4-yl)phenyl)-2-(4-(1,1-difluoropropyl)phenyl)acetamide]	37.4%	38.3%	
CCC(F)(F)c1ccc(CC(=O)Nc2ccc(-c3nccnc3N[C@@H](C)c3ccc(F)cc3Cl)cc2)cc1 [Example 70, (S)-N-(4-(3-((1-(2-Chloro-4-fluorophenyl)ethyl)amino)pyrazin-2-yl)phenyl)-2-(4-(1,1-difluoropropyl)phenyl)acetamide]	94.1%	93.8%	< 50 nM
CCC(F)(F)c1ccc(CC(=O)Nc2ccc(-c3nccnc3N3CCN(C(=O)C4CC4)CC3)cc2)cc1 [Example 96, N-(4-(3-(4-(Cyclopropanecarbonyl)piperazin-1-yl)pyrazin-2-yl)phenyl)-2-(4-(1,1-difluoropropyl)phenyl)acetamide]	47.7%	77.2%	
CC(O)C(F)(F)c1ccc(CC(=O)Nc2ccc(-c3nccnc3N[C@@H](C)c3ccccc3Cl)cc2)cc1 (stereo partly drawn) [Example 68, N-(4-(3-(((S)-1-(2-Chlorophenyl)ethyl)amino)pyrazin-2-yl)phenyl)-2-(4-(1,1-difluoro-2-hydroxypropyl)phenyl)acetamide]	93.5%	96.9%	< 50 nM
